Where “and” joins values, the source holds several entries; their conditions need not be identical. Equal entries are not always repeated. Toxic doses and inconclusive results are not listed. How the source made its calls: active means survival T/C of 150% or more; inactive means T/C below 125% in these data.
System: P388 leukemia ip, CD2F1 mice, survival T/C
Assay: NCI In Vivo Anticancer Drug Screen. Data for tumor model P388 Leukemia (intraperitoneal) in CD2F1 (CDF1) mice
Conditions: endpoint: median survival time, higher = longer survival
Summary of the method: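 Mice carrying the transplanted tumor received test compound or vehicle. Survival was recorded in each group, and the value is the treated-group measurement divided by that of the vehicle-treated control group.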

[1] = dose: 60.0 mg/kg/injection, schedule: Q01DX005 (ip), vehicle: Klucel (hydroxypropylcellulose) (HPC)
[2] = dose: 120.0 mg/kg/injection, schedule: Q01DX005 (ip), vehicle: Klucel (hydroxypropylcellulose) (HPC)
[3] = dose: 25.0 mg/kg/injection, schedule: Q01DX005 (ip), vehicle: saline
[4] = dose: 50.0 mg/kg/injection, schedule: Q01DX005 (ip), vehicle: saline
[5] = dose: 100.0 mg/kg/injection, schedule: Q01DX005 (ip), vehicle: saline
[6] = dose: 200.0 mg/kg/injection, schedule: Q01DX005 (ip), vehicle: saline
[7] = dose: 50.0 mg/kg/injection, schedule: Q01DX005 (ip), vehicle: saline with Tween-80
[8] = dose: 100.0 mg/kg/injection, schedule: Q01DX005 (ip), vehicle: saline with Tween-80
[9] = dose: 200.0 mg/kg/injection, schedule: Q01DX005 (ip), vehicle: saline with Tween-80
[10] = dose: 60.0 mg/kg/injection, schedule: Q01DX005 (ip), vehicle: saline with Tween-80
[11] = dose: 120.0 mg/kg/injection, schedule: Q01DX005 (ip), vehicle: saline with Tween-80
[12] = dose: 240.0 mg/kg/injection, schedule: Q01DX005 (ip), vehicle: saline with Tween-80
[13] = dose: 100.0 mg/kg/injection, schedule: Q04DX003 (ip), vehicle: saline with Tween-80
[14] = dose: 50.0 mg/kg/injection, schedule: Q01DX009 (ip), vehicle: saline with Tween-80
[15] = dose: 100.0 mg/kg/injection, schedule: Q01DX009 (ip), vehicle: saline with Tween-80
[16] = dose: 200.0 mg/kg/injection, schedule: Q01DX009 (ip), vehicle: saline with Tween-80
[17] = dose: 50.0 mg/kg/injection, schedule: Q01DX005 (ip), vehicle: Klucel (hydroxypropylcellulose) (HPC)

Measured: T/C

[N-]=[N+]=CC(=O)OCC1NC(=O)C(COC(=O)C=[N+]=[N-])NC1=O (configuration not stated)
inactive: dose: 12.5 mg/kg/injection, schedule: Q01DX009 (ip), vehicle: other 104 % of control and 102 % of control | dose: 25.0 mg/kg/injection, schedule: Q01DX009 (ip), vehicle: other 113 % of control and 101 % of control | dose: 100.0 mg/kg/injection, schedule: Q01DX009 (ip), vehicle: other 111 % of control and 120 % of control | dose: 200.0 mg/kg/injection, schedule: Q01DX009 (ip), vehicle: other 95 % of control and 111 % of control | dose: 3.1 micrograms/kg/injection, schedule: Q01DX009 (ip), vehicle: water 109 % of control and 104 % of control | dose: 6.1 micrograms/kg/injection, schedule: Q01DX009 (ip), vehicle: water 98 % of control and 101 % of control | dose: 12.2 micrograms/kg/injection, schedule: Q01DX009 (ip), vehicle: water 114 % of control and 100 % of control | dose: 24.4 micrograms/kg/injection, schedule: Q01DX009 (ip), vehicle: water 104 % of control and 107 % of control | dose: 48.8 micrograms/kg/injection, schedule: Q01DX009 (ip), vehicle: water 100 % of control | dose: 97.5 micrograms/kg/injection, schedule: Q01DX009 (ip), vehicle: water 92 % of control and 97 % of control | dose: 195.0 micrograms/kg/injection, schedule: Q01DX009 (ip), vehicle: water 100 % of control and 96 % of control | dose: 390.0 micrograms/kg/injection, schedule: Q01DX009 (ip), vehicle: water 109 % of control and 105 % of control | dose: 780.0 micrograms/kg/injection, schedule: Q01DX009 (ip), vehicle: water 100 % of control

CC(=O)Nc1cc(NC(C)=O)cc(C(=O)O)c1
inactive: [1] 90 % of control | [2] 90 % of control | dose: 240.0 mg/kg/injection, schedule: Q01DX005 (ip), vehicle: Klucel (hydroxypropylcellulose) (HPC) 90 % of control

N#CC1(OC2OC(CO)C(O)C(O)C2O)C=CCC1 (configuration not stated)
inactive: [3] 101 % of control | [4] 103 % of control | [5] 98 % of control | [6] 96 % of control

CCOC(=O)c1ccc(NC(=O)Nc2nc3ccccc3s2)cc1
inactive: dose: 25.0 mg/kg/injection, schedule: Q01DX009 (ip), vehicle: distilled water + Tween-80 97 % of control | dose: 50.0 mg/kg/injection, schedule: Q01DX009 (ip), vehicle: distilled water + Tween-80 97 % of control | dose: 100.0 mg/kg/injection, schedule: Q01DX009 (ip), vehicle: distilled water + Tween-80 90 % of control | dose: 200.0 mg/kg/injection, schedule: Q01DX009 (ip), vehicle: distilled water + Tween-80 90 % of control | dose: 400.0 mg/kg/injection, schedule: Q01DX009 (ip), vehicle: distilled water + Tween-80 90 % of control

CCCCN(CCCC)CC(O)c1ccc(OCc2ccccc2)c2ccccc12 (configuration not stated)
inactive: [7] 102 % of control | [8] 102 % of control | [9] 102 % of control

NC(=O)N/N=C1/CCCCCC1(c1ccccc1)c1ccccc1
inactive: dose: 30.0 mg/kg/injection, schedule: Q01DX005 (ip), vehicle: Klucel (hydroxypropylcellulose) (HPC) 95 % of control | [1] 89 % of control | [2] 91 % of control

O=c1[nH]c2nc3ccccc3n2nc1-c1ccccc1
inactive: dose: 100.0 mg/kg/injection, schedule: Q01DX001 (ip), vehicle: Klucel (hydroxypropylcellulose) (HPC) 89 % of control

COC(=O)/N=c1\cc(N2CC=CCC2)nc(N)n1O
inactive: [10] 94 % of control | [11] 94 % of control | [12] 91 % of control

N=C(N)N1CCNc2ccccc2C1
inactive: dose: 25.0 mg/kg/injection, schedule: Q04DX003 (ip), vehicle: saline with Tween-80 105 % of control | dose: 50.0 mg/kg/injection, schedule: Q04DX003 (ip), vehicle: saline with Tween-80 99 % of control | [13] 104 % of control

Nc1nc(N)c2c(ccc3nccc32)[nH]1
inactive: dose: 6.25 mg/kg/injection, schedule: Q01DX005 (ip), vehicle: saline 103 % of control | dose: 12.5 mg/kg/injection, schedule: Q01DX005 (ip), vehicle: saline 103 % of control | [3] 110 % of control

COc1ccccc1N=NC1=C2Sc3ccccc3N=C1N(c1ccccn1)C(=S)N2c1ccc(Cl)cc1
inactive: dose: 12.5 mg/kg/injection, schedule: Q01DX005 (ip), vehicle: saline with Tween-80 103 % of control | dose: 25.0 mg/kg/injection, schedule: Q01DX005 (ip), vehicle: saline with Tween-80 100 % of control | [7] 110 % of control and 117 % of control

CCCCNC1=C(Cl)C(=O)c2ccccc2C1=O
inactive: dose: 50.0 mg/kg/injection, schedule: Q01DX009 (ip), vehicle: Klucel (hydroxypropylcellulose) (HPC) 92 % of control | dose: 100.0 mg/kg/injection, schedule: Q01DX009 (ip), vehicle: Klucel (hydroxypropylcellulose) (HPC) 92 % of control | dose: 200.0 mg/kg/injection, schedule: Q01DX009 (ip), vehicle: Klucel (hydroxypropylcellulose) (HPC) 91 % of control | dose: 400.0 mg/kg/injection, schedule: Q01DX009 (ip), vehicle: Klucel (hydroxypropylcellulose) (HPC) 105 % of control

COc1cc2cc[n+]3c(c2cc1OC)-c1c2cc(OC)c(OC)cc2cc[n+]1CC3
inactive: dose: 12.5 mg/kg/injection, schedule: Q01DX009 (ip), vehicle: saline with Tween-80 100 % of control | dose: 25.0 mg/kg/injection, schedule: Q01DX009 (ip), vehicle: saline with Tween-80 97 % of control

CCC12COC3(C)CCC(C)(OC1)N23 (configuration not stated)
inactive: [4] 100 % of control | [14] 91 % of control | [5] 100 % of control | [15] 91 % of control | [6] 103 % of control | [16] 98 % of control

COc1ccc2nc(Cl)c(CBr)c(CBr)c2c1
inactive: dose: 12.5 mg/kg/injection, schedule: Q01DX005 (ip), vehicle: Klucel (hydroxypropylcellulose) (HPC) 98 % of control | [17] 117 % of control

C=C1C(=O)C2=CC1CCC(=O)C1(C)C(OC(C)=O)CC(OC(C)=O)C(C)(C)C1CC2O (configuration not stated)
inactive: dose: 17.5 mg/kg/injection, schedule: Q01DX005 (ip), vehicle: Klucel (hydroxypropylcellulose) (HPC) 108 % of control | dose: 35.0 mg/kg/injection, schedule: Q01DX005 (ip), vehicle: Klucel (hydroxypropylcellulose) (HPC) 109 % of control | dose: 70.0 mg/kg/injection, schedule: Q01DX005 (ip), vehicle: Klucel (hydroxypropylcellulose) (HPC) 111 % of control

Nc1nnnn1CCCCO
inactive: [4] 104 % of control | [5] 103 % of control | [6] 111 % of control | dose: 400.0 mg/kg/injection, schedule: Q01DX005 (ip), vehicle: saline 120 % of control

CC(Cl)(c1ccccc1)C1OCCO1 (configuration not stated)
inactive: [10] 100 % of control | [11] 101 % of control | [12] 102 % of control

COc1cccc2c1OC1(N3CCOCC3)CCCCC1C2C[N+](=O)[O-] (configuration not stated)
inactive: [14] 90 % of control | [15] 93 % of control | [16] 89 % of control

CC(C)c1c2ccccc2nn1-c1ccccc1
inactive: [13] 97 % of control | dose: 200.0 mg/kg/injection, schedule: Q04DX003 (ip), vehicle: saline with Tween-80 89 % of control | dose: 400.0 mg/kg/injection, schedule: Q04DX003 (ip), vehicle: saline with Tween-80 91 % of control

CN1C(c2ccccc2)=C(C#N)C(=O)CC(c2ccccc2)N1C (configuration not stated)
inactive: dose: 5.0 mg/kg/injection, schedule: Q01DX005 (ip), vehicle: saline with Tween-80 102 % of control | dose: 10.0 mg/kg/injection, schedule: Q01DX005 (ip), vehicle: saline with Tween-80 105 % of control | dose: 20.0 mg/kg/injection, schedule: Q01DX005 (ip), vehicle: saline with Tween-80 102 % of control | dose: 40.0 mg/kg/injection, schedule: Q01DX005 (ip), vehicle: saline with Tween-80 102 % of control | [7] 101 % of control | [10] 120 % of control | [8] 93 % of control | [11] 103 % of control | [9] 104 % of control | [12] 94 % of control

c1ccc2c(c1)c1c(c3ccccc32)CN2CCCC2C1 (configuration not stated)
inactive: [17] 105 % of control | dose: 100.0 mg/kg/injection, schedule: Q01DX005 (ip), vehicle: Klucel (hydroxypropylcellulose) (HPC) 101 % of control | dose: 200.0 mg/kg/injection, schedule: Q01DX005 (ip), vehicle: Klucel (hydroxypropylcellulose) (HPC) 110 % of control
